Reference: ChEMBL document CHEMBL4680187, “Optimization of EphA2 antagonists based on a lithocholic acid core led to the identification of UniPR505, a new 3α-carbamoyloxy derivative with antiangiogenetic properties” (Eur J Med Chem, 2020)
pIC50: −log10 of the molar value.

Tests used:
[1] = target: T1, Ephrin type-A receptor 3 (Mus musculus, UniProt P29319); experiment: Displacement of biotinylated ephrin-A1-Fc from mouse EphA3 Fc preincubated for 1 hr followed by ephrin-A1-FC addition and measured after 4 hrs by ELISA
T1 sequence (P29319 whole entry): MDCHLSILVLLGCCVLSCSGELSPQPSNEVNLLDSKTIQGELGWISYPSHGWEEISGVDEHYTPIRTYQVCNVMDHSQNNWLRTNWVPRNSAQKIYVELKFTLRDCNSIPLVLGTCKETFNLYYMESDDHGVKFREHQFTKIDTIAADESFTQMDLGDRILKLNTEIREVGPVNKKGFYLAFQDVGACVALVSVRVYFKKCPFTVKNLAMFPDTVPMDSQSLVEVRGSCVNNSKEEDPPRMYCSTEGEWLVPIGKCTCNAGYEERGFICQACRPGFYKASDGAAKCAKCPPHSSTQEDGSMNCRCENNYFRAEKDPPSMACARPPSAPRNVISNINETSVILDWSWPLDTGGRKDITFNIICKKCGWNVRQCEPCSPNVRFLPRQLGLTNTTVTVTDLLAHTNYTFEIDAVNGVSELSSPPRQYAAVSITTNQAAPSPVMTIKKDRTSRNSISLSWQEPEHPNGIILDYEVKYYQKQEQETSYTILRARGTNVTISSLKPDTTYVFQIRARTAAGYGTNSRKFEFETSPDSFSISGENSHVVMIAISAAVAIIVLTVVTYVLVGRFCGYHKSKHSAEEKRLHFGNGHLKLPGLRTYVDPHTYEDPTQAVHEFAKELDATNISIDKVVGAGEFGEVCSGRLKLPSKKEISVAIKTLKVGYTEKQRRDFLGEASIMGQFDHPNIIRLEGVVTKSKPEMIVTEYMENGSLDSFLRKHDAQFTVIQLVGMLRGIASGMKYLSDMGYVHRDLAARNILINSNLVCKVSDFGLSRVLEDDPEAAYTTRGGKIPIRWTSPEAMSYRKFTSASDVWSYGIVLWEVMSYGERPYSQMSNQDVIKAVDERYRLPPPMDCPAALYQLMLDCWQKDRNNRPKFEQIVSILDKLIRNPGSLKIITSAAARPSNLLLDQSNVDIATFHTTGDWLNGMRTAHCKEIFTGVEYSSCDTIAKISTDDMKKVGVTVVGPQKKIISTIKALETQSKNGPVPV

[2] = target: T2, Ephrin type-B receptor 1 (Rattus norvegicus, UniProt P09759); experiment: Displacement of biotinylated ephrin-B1-Fc from rat EphB1 Fc preincubated for 1 hr followed by ephrin-B1-FC addition and measured after 4 hrs by ELISA
T2 sequence (P09759 whole entry): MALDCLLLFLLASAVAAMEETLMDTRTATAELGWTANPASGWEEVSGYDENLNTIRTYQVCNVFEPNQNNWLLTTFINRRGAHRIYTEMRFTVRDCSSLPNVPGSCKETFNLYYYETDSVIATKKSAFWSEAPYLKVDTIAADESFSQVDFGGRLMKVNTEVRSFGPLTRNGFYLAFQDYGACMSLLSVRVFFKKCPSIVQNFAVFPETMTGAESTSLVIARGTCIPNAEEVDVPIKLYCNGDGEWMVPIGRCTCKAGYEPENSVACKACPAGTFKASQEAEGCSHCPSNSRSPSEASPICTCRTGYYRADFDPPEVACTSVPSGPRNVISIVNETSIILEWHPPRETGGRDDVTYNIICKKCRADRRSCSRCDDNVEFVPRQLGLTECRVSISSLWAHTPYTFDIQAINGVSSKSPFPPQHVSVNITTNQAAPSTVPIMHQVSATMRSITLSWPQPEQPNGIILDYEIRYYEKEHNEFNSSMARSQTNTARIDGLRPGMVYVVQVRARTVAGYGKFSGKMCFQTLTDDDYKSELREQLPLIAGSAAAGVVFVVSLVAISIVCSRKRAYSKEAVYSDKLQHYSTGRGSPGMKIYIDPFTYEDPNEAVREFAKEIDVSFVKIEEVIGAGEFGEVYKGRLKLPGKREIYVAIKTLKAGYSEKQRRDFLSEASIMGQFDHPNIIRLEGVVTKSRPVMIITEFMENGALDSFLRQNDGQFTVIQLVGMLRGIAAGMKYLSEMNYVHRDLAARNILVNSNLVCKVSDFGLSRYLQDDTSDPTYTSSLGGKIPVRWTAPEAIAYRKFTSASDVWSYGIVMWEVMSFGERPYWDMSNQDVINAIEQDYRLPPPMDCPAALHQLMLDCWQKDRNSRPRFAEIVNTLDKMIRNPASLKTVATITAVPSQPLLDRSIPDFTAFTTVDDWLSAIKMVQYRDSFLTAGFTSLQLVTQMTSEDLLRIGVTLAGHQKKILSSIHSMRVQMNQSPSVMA

[3] = tested on: HUVEC; experiment: Antiangiogenic activity in HUVEC assessed as reduction in number of polygons formation after 16 hrs by matrigel-based microscopic analysis; conditions: Homo sapiens

pIC50 [1]: 5.35 | pIC50 [2]: < 4.52
Compound: CCNC(=O)O[C@@H]1CC[C@@]2(C)[C@H](CC[C@@H]3[C@@H]2CC[C@]2(C)[C@@H]([C@H](C)CCC(=O)N[C@H](CC(=O)O)Cc4c[nH]c5ccccc45)CC[C@@H]32)C1
pIC50 [3]: 5.52
